Source: patent US6974837B2, “Compositions comprising sibutramine metabolites in combination with phosphodiesterase inhibitors” (Sepracor Inc., priority 1999, dated 2005)
Read-outs that look alike come from different tables or passages of the source.

How the values were obtained:
[1] = biological target: serotonin (5-HT) uptake site (Rattus norvegicus, UniProt P31652)
[2] = system: nonselective muscarinic receptor; test: Binding at the nonselective muscarinic receptor; design: species or system rat; conditions: for IC50: rat cerebral cortex
[3] = biological target: human recombinant norepinephrine (NE) uptake site (Homo sapiens, UniProt P23975); test: Binding at the norepinephrine (NE) uptake site
human recombinant norepinephrine (NE) uptake site, sequence (P23975 whole entry): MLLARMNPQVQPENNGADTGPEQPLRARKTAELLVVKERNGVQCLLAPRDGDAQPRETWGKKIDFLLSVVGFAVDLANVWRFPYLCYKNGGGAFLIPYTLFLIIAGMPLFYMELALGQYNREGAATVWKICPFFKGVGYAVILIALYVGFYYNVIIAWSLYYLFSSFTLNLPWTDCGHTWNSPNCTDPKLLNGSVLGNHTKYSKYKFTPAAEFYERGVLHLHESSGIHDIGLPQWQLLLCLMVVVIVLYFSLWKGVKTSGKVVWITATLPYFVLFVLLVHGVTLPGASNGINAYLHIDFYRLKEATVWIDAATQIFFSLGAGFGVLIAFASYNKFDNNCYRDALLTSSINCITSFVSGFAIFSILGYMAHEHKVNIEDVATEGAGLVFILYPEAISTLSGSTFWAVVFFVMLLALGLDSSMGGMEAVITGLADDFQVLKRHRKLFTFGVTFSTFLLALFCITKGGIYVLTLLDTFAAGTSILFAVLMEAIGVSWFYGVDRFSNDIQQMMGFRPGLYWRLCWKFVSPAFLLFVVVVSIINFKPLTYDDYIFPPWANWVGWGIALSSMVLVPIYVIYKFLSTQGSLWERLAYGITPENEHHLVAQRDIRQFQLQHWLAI

[4] = human recombinant NE uptake site, read-out: Binding IC50 NE Uptake

serotonin (5-HT) uptake site, sequence (P31652 whole entry): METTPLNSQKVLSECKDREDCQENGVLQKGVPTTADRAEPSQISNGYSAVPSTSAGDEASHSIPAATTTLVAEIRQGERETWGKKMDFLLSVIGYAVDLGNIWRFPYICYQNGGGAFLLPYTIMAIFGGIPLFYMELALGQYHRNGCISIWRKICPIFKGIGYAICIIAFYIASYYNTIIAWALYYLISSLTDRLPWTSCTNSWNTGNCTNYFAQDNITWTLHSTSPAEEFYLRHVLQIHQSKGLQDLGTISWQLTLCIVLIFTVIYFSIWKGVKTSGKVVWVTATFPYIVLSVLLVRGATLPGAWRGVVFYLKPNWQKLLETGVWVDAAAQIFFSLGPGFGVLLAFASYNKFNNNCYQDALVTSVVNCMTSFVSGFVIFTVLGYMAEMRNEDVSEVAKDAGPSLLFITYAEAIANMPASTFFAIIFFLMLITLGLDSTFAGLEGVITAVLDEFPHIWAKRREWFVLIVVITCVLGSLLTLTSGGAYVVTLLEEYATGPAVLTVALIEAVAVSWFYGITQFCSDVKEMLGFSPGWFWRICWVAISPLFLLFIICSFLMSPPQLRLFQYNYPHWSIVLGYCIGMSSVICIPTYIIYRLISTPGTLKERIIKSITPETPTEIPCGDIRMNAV

SMILES	5-HT uptake site binding / inhibition (in words) [1]	affinity / activity at muscarinic site (in words) [2]	NE uptake site binding / inhibition (in words) [3]	IC50 [3, 4] [nM]	IC50 [2] [nM]	IC50 [3] [nM]
CC(C)C[C@@H](N)C1(c2ccc(Cl)cc2)CCC1 [(R)-didesMe]	potent inhibitors	negligible activity	potent inhibitors	13		
CN[C@@H](CC(C)C)C1(c2ccc(Cl)cc2)CCC1 [(S)-desMe]					654	870
CN1[C@@H]2CC[C@H]1C[C@@H](OC(=O)C(CO)c1ccccc1)C2 (stereo partly shown) [Atropine, reference compound]					0.31	
CNC(CC(C)C)C1(c2ccc(Cl)cc2)CCC1 (racemic) [(R/S)-desMe, 1-(4-chlorophenyl)-N-methyl-2-(2-methylpropyl)-cyclobutanamethamine]					1170	10
CN[C@H](CC(C)C)C1(c2ccc(Cl)cc2)CCC1 [(R)-desMe]	potent inhibitors	negligible activity	potent inhibitors	4		
